According to patent publication US20250177324A1, “A[…], AND PREPARATION METHOD THEREFOR AND USE THEREOF” (SHANGHAI ZHIGEN PHARMACEUTICAL & TECHNOLOGY CO. LTD., priority 2022, published 2025):
Counter-ions that a name gives are not always drawn. Like-named read-outs stand apart in the source and are kept apart here.

Legend:
C57 mice = assay: Forced swim test of oral administration in mice (antidepressant activity); format: in vivo; details: for inhibition in vivo at 20 mg/kg: Mus musculus, po, reduction of immobility time vs blank group, single gavage 20 mg/kg
Method: To investigate the effects of different compounds on depression-like behavior in C57 mice by single oral administration of 20 mg/kg for 1 h and 24 h followed by forced swimming experiment, respectively.
The experimental animals were 6-week-old C57 mice, male, C57 breed mice purchased from Shanghai Slaughter Laboratory Animal Co. Ltd, weighing 20.45±0.19 g. The animals arrived at the Animal Breeding Center of the Shanghai Institute of Pharmaceutical Sciences, Chinese Academy of Sciences (Animal Production License: SCXK9[Shanghai]2004-0002, Use License: SYXK [Shanghai]2003-0029) before the experiments and were acclimated to the animal facilities for more than 3 days, 6 animals/cage were feed. The feeding environment was room temperature 23±0.2° C. and 12/12 h day/night alternating light and dark. Prior to behavioral testing, animals were moved to the behavioral testing room 2 hours in advance to acclimatize them to the environment and reduce their nervousness.
Preparation of the test material: the test compounds were weighed and dissolved in 0.9% NaCl solution, mixed well, and prepared into 1 mg/ml and 2 mg/ml solution for use, respectively.
24 h prior to drug administration, mice were placed in a cylindrical tank to acclimatize to the water environment for 10 min. On the day of the behavioral test, the animals were administered the drug once, by gavage/intraperitoneal injection at 1 h and 24 h prior to the behavioral test, respectively (as shown in Table 1).
The antidepressant effect of the compounds was evaluated by their ability to cause a reduction in the immobility time of the animals in the forced swim test compared to the blank group.

[1] = Solid-state chemical stability under different storage conditions (liquid chromatography); format: physicochemical; details: 40° C., 75% RH; for Stability of solid state compound, 0 Days (%): liquid chromatography
Method: The HPLC conditions were as follows:
Configuration of test solution: appropriate amount of sample was dissolved and diluted with a diluent (0.03 mol/L phosphate buffer-acetonitrile (80:20)) to make 1 mg/mL solution.
Chromatographic conditions: according to the high performance liquid chromatography (Chinese Pharmacopoeia 2020 version of the four general 0512) test, using octadecyl-bonded silica gel (Agilent Eclipse Plus C18, 4.6 mm*250 mm, 5.0 μm, P/N for 959990-902 or a chromatographic column with equivalent performance) as a filler; 0.03 mol/L phosphate buffer (4.08 g of potassium dihydrogen phosphate was dissolved in 1000 ml of water and shaken well) was used as mobile phase A and acetonitrile as mobile phase B at a flow rate of 1 ml/min, the column temperature was 30° C., the detection wavelength was 220 nm, the injection volume was 10 ul, and the sample plate was controlled to 8° C. and running for 65 min. Gradient elution was performed according to the following table: […]
Configuration of test solution: appropriate amount of the product was dissolved and diluted with a diluent (0.1% phosphoric acid-acetonitrile (80:20)) to make 1 mg/mL solution.
Chromatographic conditions: according to the high performance liquid chromatography (Chinese Pharmacopoeia 2020 version of the four general 0512) test, using octadecyl bonded silica gel (Agilent Eclipse Plus C18, 4.6 mm*250 mm, 5.0 μm, P/N 959990-902 or a chromatographic column with equivalent performance) as a filler; 0.1% phosphate buffer (1 ml of phosphoric acid in 1000 ml of water and shake well) as mobile phase A, acetonitrile as mobile phase B, flow rate of 1 ml/min, column temperature of 30° C., detection wavelength of 220 nm, injection volume of 10 ul, running for 48 minutes. Gradient elution was performed according to the following table: […]

[2] = test 1 h after dosing, read-out: 1 h inhibition (%)
[3] = test 24 h after dosing, read-out: 24 h inhibition (%)

Compound	inhibition in vivo at 20 mg/kg (C57 mice; [2]) [%]	inhibition in vivo at 20 mg/kg (C57 mice; [3]) [%]	Stability of solid state compound, 0 Days (%) [1] [%]	Stability of solid state compound, 5 Days (%) [1] [%]	Stability of solid state compound, 10 Days (%) [1] [%]	Stability of solid state compound, 30 Days (%) [1] [%]	Stability of solid state compound, 60 Days (%) [1] [%]	Stability of solid state compound, 180 Days (%) ([1]; 180 days)	antidepressant effect in the forced swim test (in words) (C57 mice; oral administration, 1 h and 24 h)
Cl.N[C@@]1(c2ccc(C(F)(F)F)cc2)CCC[C@@H](O)C1=O [Comparative compound 1, reference compound]	30.6 ± 3.1	35 ± 0.3	99.98	98.94	98.74	95.88	91.57		
C[C@@H]1CC[C@@](N)(c2ccccc2Cl)C(=O)[C@@H]1O [Comparative compound 3, reference compound]	22.6 ± 2.7	23.7 ± 3.2							
CC1(C)CC[C@@](N)(c2ccccc2Cl)C(=O)[C@@H]1O [Comparative compound 4, reference compound]	2.9 ± 1	-17.2 ± 2							
N[C@@]1(c2ccccc2Cl)CC2(CC2)C[C@@H](O)C1=O [Comparative compound 5, reference compound]	22.8 ± 2.5	19.1 ± 2.1							
CC1(C)C[C@@H](O)C(=O)[C@](N)(c2ccccc2Cl)C1 [Comparative compound 6, reference compound]	18.2 ± 1.6	11.3 ± 2							
C[C@@]1(O)CCC[C@@](N)(c2ccc(C(F)(F)F)cc2)C1=O.Cl [Compound 52, (2R, 6R)-2-amino-6-hydroxy-6-methyl-2-(4-(trifluoromethyl)phenyl)cyclohexan-1-one hydrochloride]	29.5 ± 1.1	25.6 ± 2.1	99.89		99.89	99.90	99.88	99.82	
C[C@]1(O)CCC[C@@](N)(c2ccc(C(F)(F)F)cc2)C1=O.Cl [Compound 54, (2R, 6S)-2-amino-6-hydroxy-6-methyl-2-(4-(trifluoromethyl)phenyl)cyclohexan-1-one hydrochloride]	33 ± 2.5	38.7 ± 3.3	99.27		99.23		99.20		
CNC1(c2cccc(OC(F)(F)F)c2F)CCCC(C)(O)C1=O.Cl (stereo not drawn) [Compound 56, 2-(2-fluoro-3-(trifluoromethoxy)phenyl)-6-hydroxy-6-methyl-2-(methylamino)cyclohexan-1-one hydrochloride]			99.61			99.50			
CN[C@@]1(c2cccc(OC(F)(F)F)c2F)CCC[C@](C)(O)C1=O [Compound 57, (2R,6S)-2-(2-fluoro-3-(trifluoromethoxy)phenyl)-6-hydroxy-6-methyl-2-(methylamino)cyclohexan-1-one hydrochloride]	42.2 ± 1.8	36.5 ± 3							
CNC1(c2c(F)cc(F)cc2F)CCCC(C)(O)C1=O.Cl (stereo not drawn) [Compound 58, 2-hydroxy-2-methyl-6-methylamino-6-(2,4,6-trifluorotoluene)cyclohexan-1-one hydrochloride]			99.34		99.12	99.14			
CNC1(c2cccc(C#N)c2)CCCC(C)(O)C1=O.Cl (stereo not drawn) [Compound 63, 3-(3-hydroxy-3-methyl-1-methylamino-2-oxocyclohexyl)benzonitrile hydrochloride]			99.67	99.66	99.66	99.66			
CN[C@@]1(c2cccc(C#N)c2)CCC[C@](C)(O)C1=O.Cl [Compound 64, 3-((1R, 3S)-3-hydroxy-3-methyl-1-methylamino-2-oxocyclohexyl)benzonitrile hydrochloride]			99.88	99.88	99.89	99.85			
CNC1(c2cccc(F)c2F)CCCC(C)(O)C1=O.Cl (stereo not drawn) [Compound 65, 2-(2,3-difluorophenyl)-6-hydroxy-6-methyl-2-methylaminocyclohexan-1-one hydrochloride]	26.4 ± 1.1	37.9 ± 2.3	99.54	99.37	99.32	99.22			
CNC1(c2cccc(OC(F)(F)F)c2)CCCC(C)(O)C1=O.Cl (stereo not drawn) [Compound 67, 2-hydroxy-2-methyl-6-methylamino-6-(3-(trifluoromethoxy)phenyl)cyclohexan-1-one hydrochloride]			99.82		99.73	99.57			
CN[C@@]1(c2cccc(OC(F)(F)F)c2)CCC[C@](C)(O)C1=O.Cl [Compound 68, (2S,6R)-2-hydroxy-2-methyl-6-methylamino-6-(3-(trifluoromethoxy)phenyl)cyclohexan-1-one hydrochloride]	26.2 ± 4.1	37.4 ± 0.7	99.12	99.11	99.12				
CN[C@@]1(c2ccccc2Cl)CCC[C@](C)(O)C1=O.Cl [Compound 69, (2R,6S)-2-(2-chlorophenyl)-6-hydroxy-6-methyl-2-methylaminocyclohexan-1-one hydrochloride]			98.36		98.43	98.34			
CN[C@@]1(c2ccccc2Cl)CCC[C@@](C)(O)C1=O.Cl [Compound 70, (2R,6R)-2-(2-chlorophenyl)-6-hydroxy-6-methyl-2-methylaminocyclohexan-1-one hydrochloride]			97.84		97.84	97.82			
CN[C@@]1(c2ccc(C(F)(F)F)cc2)CCC[C@@](C)(O)C1=O.Cl [Compound 71, (2R,6R)-2-hydroxy-2-methyl-6-methylamino-6-(4-(trifluoromethyl)phenyl)cyclohexan-1-one hydrochloride]	42.4 ± 0.4	40.2 ± 1.6	99.67	99.46	99.46	99.45			
CN(C)[C@@]1(c2ccc(C(F)(F)F)cc2)CCC[C@@](C)(O)C1=O.Cl [Compound 72, (2R,6R)-2-dimethylamino-6-hydroxy-6-methyl-2-(4-(trifluoromethyl)phenyl)cyclohexan-1-one hydrochloride]			99.69	99.66	99.62	99.61			
CN[C@]1(c2ccc(C(F)(F)F)cc2)CCC[C@@](C)(O)C1=O.Cl [Compound 75, (2R,6S)-2-hydroxy-2-methyl-6-methylamino-6-(4-(trifluoromethyl)phenyl)cyclohexan-1-one hydrochloride]			99.85		99.78	99.77			
CNCCC(Oc1ccc(C(F)(F)F)cc1)c1ccccc1 (stereo not drawn) [Fluoxetine, reference compound]	2.4 ± 1.1	2.3 ± 3.1							did not show antidepressant effect
